Experimental data: patent US20100184722A1, “INCLUSION COMPLEXES OF ALPHA-CYCLODEXTRIN AND SILDENAFIL SALT” (Shimoda Biotech (Pty) Ltd, priority 2008, published 2010)
Structures can show the parent of a compound that is named as a salt.

How the values were obtained:
Assay type in all cases: physicochemical
[1] = Solubility of sildenafil base in ddH2O with cyclodextrins (24 h shaking, HPLC); details: ACD 0-100 mg/ml, GCD 0-200 mg/ml, HPBCD 0-200 mg/ml, BCD 0-15 mg/ml
Procedure: These samples were shaken for 24 hours at 200 rpm. Excess sildenafil citrate was present in each of the vials for the duration of the solubility study. Following the shaking, the vial contents were filtered through 0.45 μm filters to remove any excess solute. The remaining solution was assayed by HPLC for sildenafil base content. […] This is in agreement with the findings of Omani, et al. (2006).

[2] = pH dependence of sildenafil citrate solubility in phosphate-citrate buffer with or without cyclodextrin; details: phosphate-citrate buffer (0.1M), pH 3.0-8.0
Procedure: Phosphate-citrate buffer (0.1M) solutions are prepared with pH's of 3.0; 4.0, 5.0; 6.0; 7.0 and 8.0 in ddH2O (de-oxygenated water by purging with nitrogen gas). […] The maximal aqueous solubility for sildenafil citrate appears to occur at pH 5.

[3] = Solubility of sildenafil citrate in ddH2O with cyclodextrins (24 h shaking, HPLC); details: ACD 0-100 mg/ml, GCD 0-200 mg/ml, HPBCD 0-200 mg/ml, BCD 0-15 mg/ml
Procedure: Solutions were prepared by adding 50 mg of sildenafil citrate to ddH2O samples with varying quantities of the different cyclodextrins. FIG. 1B depicts solubility data of sildenafil citrate complexed with beta-cyclodextrin (BCD) at 0-15 mg/ml These samples were shaken for 24 hours at 200 rpm. Excess sildenafil citrate was present in each of the vials for the duration of the solubility study. Following the shaking, the vial contents were filtered through 0.45 μm filters to remove any excess solute. The remaining solution was assayed by HPLC for sildenafil citrate content.

Row | aqueous solubility of sildenafil base in the presence of cyclodextrins vs no cyclodextrin [1] | pH of maximal aqueous solubility [2] | aqueous solubility of sildenafil citrate in the presence of cyclodextrins vs no cyclodextrin [3] | Structure (SMILES)
1 | improved solubility | – | – | CCCc1nn(C)c2c(=O)[nH]c(-c3cc(S(=O)(=O)N4CCN(C)CC4)ccc3OCC)nc12 [sildenafil base, 5-[2-ethoxy-5-(4-methylpiperazin-1-yl)sulfonylphenyl]-1-methyl-3-propyl-4H-pyrazolo[5,4-e]pyrimidin-7-one]
2 | – | 5 | improved solubility | CCCc1nn(C)c2c(=O)[nH]c(-c3cc(S(=O)(=O)N4CCN(C)CC4)ccc3OCC)nc12 [sildenafil citrate, 1-[[3-(6,7-dihydro-1-methyl-7-oxo-3-propyl-1H15-pyrazolo[4,3-d]pyrimidin-5-yl)-4-ethoxyphenyl]sulfonyl]-4-methylpiperazine citrate]
